Test results published in the supplement of paper PMC10307832.

What was measured:
Experiment in all cases: relative viability (nuclei count vs DMSO), 5 days (fraction); higher = more cells survive
Bleomycin + Bortezomib = compound: CC1=C(N=C(N=C1N)[C@H](CC(=O)N)NC[C@@H](C(=O)N)N)C(=O)N[C@@H]([C@H](C2=CN=CN2)OC3C(C(C(C(O3)CO)O)O)OC4C(C(C(C(O4)CO)O)OC(=O)N)O)C(=O)N[C@H](C)[C@H]([C@H](C)C(=O)N[C@@H]([C@@H](C)O)C(=O)NCCC5=NC(=CS5)C6=NC(=CS6)C(=O)NCCC[S+](C)C)O [Bleomycin] + CC(C)C[C@H](NC(=O)[C@H](Cc1ccccc1)NC(=O)c1cnccn1)B(O)O [Bortezomib] (partner 0.002 µM); settings: main component drawn
Outline: (§1)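 The day after seeding in 1536-well plates, lung cancer cell lines were treated by pin tool with a single drug, or with a fixed anchor-drug dose together with five library-drug doses (not always all listed) in √10 steps. After 5 days, a combined fix-and-stain solution (final 0.05% Triton X-100, 1% formaldehyde, 1 ug/ml Hoechst) was added. Nuclei counted on 4× images gave relative viability as treated counts over vehicle counts, reported as the median of duplicate plates.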

Bleomycin + Decitabine = compound: CC1=C(N=C(N=C1N)[C@H](CC(=O)N)NC[C@@H](C(=O)N)N)C(=O)N[C@@H]([C@H](C2=CN=CN2)OC3C(C(C(C(O3)CO)O)O)OC4C(C(C(C(O4)CO)O)OC(=O)N)O)C(=O)N[C@H](C)[C@H]([C@H](C)C(=O)N[C@@H]([C@@H](C)O)C(=O)NCCC5=NC(=CS5)C6=NC(=CS6)C(=O)NCCC[S+](C)C)O [Bleomycin] + Nc1ncn([C@H]2C[C@H](O)[C@@H](CO)O2)c(=O)n1 [Decitabine] (partner 2 µM); settings: main component drawn
Outline: as §1

Etoposide + Luminespib = compound: COc1cc([C@@H]2c3cc4c(cc3[C@@H](O[C@@H]3O[C@@H]5CO[C@@H](C)O[C@H]5[C@H](O)[C@H]3O)[C@H]3COC(=O)[C@H]23)OCO4)cc(OC)c1O [Etoposide] + CCNC(=O)c1noc(-c2cc(C(C)C)c(O)cc2O)c1-c1ccc(CN2CCOCC2)cc1 [Luminespib] (partner 0.01 µM)
Outline: as §1

Etoposide + Dasatinib = compound: COc1cc([C@@H]2c3cc4c(cc3[C@@H](O[C@@H]3O[C@@H]5CO[C@@H](C)O[C@H]5[C@H](O)[C@H]3O)[C@H]3COC(=O)[C@H]23)OCO4)cc(OC)c1O [Etoposide] + Cc1nc(Nc2ncc(C(=O)Nc3c(C)cccc3Cl)s2)cc(N2CCN(CCO)CC2)n1 [Dasatinib] (partner 0.075 µM)
Outline: as §1

Cell Line	relative viability (Bleomycin + Bortezomib; first compound 0.01 µM)	relative viability (Bleomycin + Bortezomib; first compound 0.03162 µM)	relative viability (Bleomycin + Bortezomib; first compound 0.1 µM)	relative viability (Bleomycin + Bortezomib; first compound 0.3162 µM)	relative viability (Bleomycin + Bortezomib; first compound 1 µM)	relative viability (Bleomycin + Decitabine; first compound 0.01 µM)	relative viability (Bleomycin + Decitabine; first compound 0.03162 µM)	relative viability (Bleomycin + Decitabine; first compound 0.1 µM)	relative viability (Bleomycin + Decitabine; first compound 0.3162 µM)	relative viability (Bleomycin + Decitabine; first compound 1 µM)	relative viability (Etoposide + Luminespib; first compound 0.01 µM)	relative viability (Etoposide + Luminespib; first compound 0.03162 µM)	relative viability (Etoposide + Luminespib; first compound 0.1 µM)	relative viability (Etoposide + Luminespib; first compound 0.3162 µM)	relative viability (Etoposide + Luminespib; first compound 1 µM)	relative viability (Etoposide + Dasatinib; first compound 0.01 µM)	relative viability (Etoposide + Dasatinib; first compound 0.03162 µM)	relative viability (Etoposide + Dasatinib; first compound 0.1 µM)	relative viability (Etoposide + Dasatinib; first compound 0.3162 µM)	relative viability (Etoposide + Dasatinib; first compound 1 µM)
NCI-H661	0.838	0.603	0.484	0.228	0.251	0.552	0.572	0.434	0.37	0.315	0.956	0.901	0.898	0.553	0.435	0.787	1.02	0.671	0.586	0.306
NCI-H727	0.796	0.853	0.775	0.303	0.37	0.938	0.686	0.893	0.459	0.776	0.53	0.294	–	0.3	0.418	0.4	0.355	–	0.37	0.408
NCI-H838	0.67	0.204	0.23	0.0877	0.152	0.398	0.369	0.297	0.228	0.478	0.394	0.31	0.272	0.162	0.194	0.338	0.295	0.219	0.271	0.285
NCI-H1355	1.13	1.24	1.03	0.376	0.262	0.319	0.341	0.371	0.314	0.2	0.635	0.765	0.403	0.338	0.201	0.673	0.692	0.376	0.622	0.251
NCI-H1437	0.519	0.44	0.452	0.121	0.303	0.472	0.527	0.518	0.428	0.377	1.1	1.07	1.14	0.7	0.509	0.585	0.443	0.283	0.29	0.165
NCI-H1650	0.2	0.216	0.194	0.167	0.172	0.295	0.253	0.163	0.184	0.146	0.204	0.175	0.202	0.209	0.211	0.302	0.381	0.315	0.211	0.127
NCI-H1651	0.91	0.898	0.664	0.457	0.306	0.619	0.461	0.477	0.333	0.192	0.815	0.724	0.681	0.308	0.209	0.282	0.426	0.385	0.189	0.0972
NCI-H1666	0.622	0.427	0.434	0.31	0.261	0.699	0.56	0.505	0.442	0.388	0.949	0.906	0.77	0.399	0.406	0.796	0.802	0.594	0.361	0.293
NCI-H1734	0.732	0.664	0.725	0.239	0.226	0.453	0.477	0.414	0.272	0.2	0.226	0.192	0.182	0.185	0.168	0.415	0.449	0.312	0.436	0.21
NCI-H1755	0.854	0.957	0.827	0.384	0.659	0.667	0.706	0.651	0.561	0.506	0.481	0.415	0.45	0.483	0.277	0.433	0.452	0.469	0.413	0.394
NCI-H1792	0.871	0.958	0.663	0.323	0.283	0.521	0.649	0.558	0.3	0.252	0.317	0.472	0.205	0.215	0.248	0.699	0.695	0.658	0.72	0.549
NCI-H1915	0.645	0.823	0.384	0.179	0.136	0.259	0.237	0.238	0.193	0.141	0.714	0.634	0.808	0.617	0.394	0.31	0.413	0.236	0.326	0.286
NCI-H1975	0.27	0.342	0.27	0.16	0.142	0.327	0.437	0.291	0.209	0.177	0.34	0.199	0.125	0.242	0.199	0.336	0.426	0.32	0.348	0.214
NCI-H1993	1.2	1.06	0.95	0.539	0.548	0.602	0.507	0.556	0.519	0.436	0.827	0.726	0.757	0.73	0.48	0.619	0.712	0.478	0.546	0.376
NCI-H2009	0.852	0.98	1.01	0.358	0.441	0.39	0.392	0.353	0.293	0.271	1.03	0.961	1	0.644	0.476	0.288	0.313	0.218	0.282	0.207
